Assay [1] has as its target GDP-bound NRAS wild-type protein (Homo sapiens, UniProt P01111). Nature of the assay: Binding to NRAS by surface plasmon resonance (SPR), Single Cycle Kinetics. The following applies: for NRAS/KRAS (ratio of KD value for NRAS to KD value for KRAS): SPR, GDP-bound NRAS wild-type protein vs GDP-bound KRAS wild-type protein; for NRAS/KRAS (ratio of KD value with respect to GDP-bound NRAS wild-type protein to KD value with respect to KRAS): SPR KD ratio NRAS/KRAS, class symbols.

Assay [2] addresses GDP-bound HRAS wild-type protein (Homo sapiens, UniProt P01112). Nature of the assay: Binding to HRAS by surface plasmon resonance (SPR), Single Cycle Kinetics. The note with it: for HRAS/KRAS (ratio of KD value for HRAS to KD value for KRAS): SPR, GDP-bound HRAS wild-type protein vs GDP-bound KRAS wild-type protein; for HRAS/KRAS (ratio of KD value with respect to GDP-bound HRAS wild-type protein to KD value with respect to KRAS): SPR KD ratio HRAS/KRAS, class symbols.

The text below walks through data of patent US20240158446A1, “CYCLIC COMPOUND HAVING SELECTIVE INHIBITORY ACTION ON KRAS OVER HRAS AND NRAS” (CHUGAI SEIYAKU KABUSHIKI KAISHA, priority 2021, published 2024).

Sequence of GDP-bound NRAS wild-type protein (P01111 whole entry): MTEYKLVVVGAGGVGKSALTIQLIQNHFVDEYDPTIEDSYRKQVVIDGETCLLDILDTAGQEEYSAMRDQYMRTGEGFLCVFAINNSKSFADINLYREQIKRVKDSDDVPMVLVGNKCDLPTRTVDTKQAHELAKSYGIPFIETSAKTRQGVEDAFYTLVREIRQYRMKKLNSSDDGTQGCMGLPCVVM
Sequence of GDP-bound HRAS wild-type protein (P01112 whole entry): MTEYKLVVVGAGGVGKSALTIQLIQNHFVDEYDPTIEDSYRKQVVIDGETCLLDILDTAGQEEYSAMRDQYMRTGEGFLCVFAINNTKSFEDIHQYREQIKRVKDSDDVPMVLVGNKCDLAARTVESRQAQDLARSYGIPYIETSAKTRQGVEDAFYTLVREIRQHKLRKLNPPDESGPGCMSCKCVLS

As for `CCC[C@H]1C(=O)N[C@@H]([C@@H](C)CC)C(=O)N(C)CC(=O)N(C)[C@H]2C/C=C\CCN(C2=O)[C@@H](Cc2ccc(C(F)(F)F)cc2)C(=O)N(C)CC(=O)N[C@@H](CCc2ccc(Cl)c(Cl)c2)C(=O)N2C[C@H](OCC)C[C@H]2C(=O)NC2(CC(C)(C)C2)C(=O)N(C)[C@@H](C(CC)CC)C(=O)N(C)[C@H](C(=O)N(C)C)CC(=O)N1C` [PP2175], the “NRAS/KRAS (ratio of KD value for NRAS to KD value for KRAS)” value in assay [1] was “AA (a compound having 20 or more is denoted as AA)”. In assay [2], the “HRAS/KRAS (ratio of KD value for HRAS to KD value for KRAS)” value was “A (a compound having 10 or more and less than 20 is denoted as A)”.

Take `CC[C@H](C)[C@@H]1NC(=O)[C@H](CC(C)C)N(C)C(=O)C[C@@H](C(=O)N(C)C)N(C)C(=O)[C@H](C2CCCC2)N(C)C(=O)C2(CCCC2)NC(=O)[C@@H]2C[C@@H](C)CN2C(=O)[C@H](CCc2cc(F)c(C(F)(F)F)c(F)c2)NC(=O)CN(C)C(=O)[C@H](Cc2ccc(C)cc2)N2CC/C=C\C[C@@H](C2=O)N(C)C(=O)CN(C)C1=O` [PP2189]: the “NRAS/KRAS (ratio of KD value for NRAS to KD value for KRAS)” value in assay [1] is “A (a compound having 10 or more and less than 20 is denoted as A)”. Besides, the “HRAS/KRAS (ratio of KD value for HRAS to KD value for KRAS)” value in assay [2] is “A (a compound having 10 or more and less than 20 is denoted as A)”.

`CCC(CC)[C@H]1C(=O)N(C)[C@H](C(=O)N(C)C)CC(=O)N(C)[C@@H](COC)C(=O)N[C@@H]([C@@H](C)CC)C(=O)N(C)CC(=O)N(C)[C@H]2C/C=C\CCN(C2=O)[C@@H](Cc2ccc(C)cc2)C(=O)N(C)CC(=O)N[C@@H](CCc2cc(F)c(C(F)(F)F)c(F)c2)C(=O)N2CCCC[C@H]2C(=O)NC2(CC(C)(C)C2)C(=O)N1C` [PP2922]: the “NRAS/KRAS (ratio of KD value with respect to GDP-bound NRAS wild-type protein to KD value with respect to KRAS)” value in assay [1] is given as “AA (a compound having 20 or more is denoted as AA)”. The “HRAS/KRAS (ratio of KD value with respect to GDP-bound HRAS wild-type protein to KD value with respect to KRAS)” value in assay [2] was “A (a compound having 10 or more and less than 20 is denoted as A)”.

Turning to `CCC[C@H]1C(=O)N[C@@H](C(CC)CC)C(=O)N(C)CC(=O)N(C)[C@H]2C/C=C\CCN(C2=O)[C@@H](Cc2ccc(C)cc2)C(=O)N(C)CC(=O)N[C@@H](CCc2ccc(C(F)(F)F)c(Cl)c2)C(=O)N2C[C@H](OCC)C[C@H]2C(=O)NC2(CC(C)(C)C2)C(=O)N(C)[C@@H](CC(C)C)C(=O)N(C)[C@H](C(=O)N(C)C)CC(=O)N1C` [PP2202], the “NRAS/KRAS (ratio of KD value for NRAS to KD value for KRAS)” value in assay [1] is “A (a compound having 10 or more and less than 20 is denoted as A)”. For the same compound, the “HRAS/KRAS (ratio of KD value for HRAS to KD value for KRAS)” value in assay [2] was “A (a compound having 10 or more and less than 20 is denoted as A)”.

For the compound `CCO[C@@H]1C[C@H]2C(=O)NC3(CCC3)C(=O)N(C)[C@@H](C(CC)CC)C(=O)N(C)[C@H](C(=O)N(C)C)CC(=O)N(C)[C@@H](CC3CC3)C(=O)N[C@@H]([C@@H](C)CC)C(=O)N(C)CC(=O)N(C)[C@H]3C/C=C\CCN(C3=O)[C@@H](Cc3ccc(F)cc3C)C(=O)N(C)CC(=O)N[C@@H](CCc3cc(F)c(C(F)(F)F)c(F)c3)C(=O)N2C1` [PP1514], in assay [1] (KD ratio class), the “NRAS/KRAS (ratio of KD value for NRAS to KD value for KRAS)” value is “A (a compound having 10 or more and less than 20 is denoted as A)”. Moreover, the “HRAS/KRAS (ratio of KD value for HRAS to KD value for KRAS)” value in assay [2] (KD ratio class) is “A (a compound having 10 or more and less than 20 is denoted as A)”.

On to `CCO[C@@H]1C[C@H]2C(=O)NC3(CCC3)C(=O)N(C)[C@@H](C(CC)CC)C(=O)N(C)[C@H](C(=O)N3CCOCC3)CC(=O)N(C)[C@@H](CC(C)C)C(=O)N[C@@H]([C@@H](C)CC)C(=O)N(C)CC(=O)N(C)[C@H]3CCCCCN(C3=O)[C@@H](Cc3ccc(C(F)(F)F)cc3)C(=O)N(C)CC(=O)N[C@@H](CCc3cc(F)c(C(F)(F)F)c(F)c3)C(=O)N2C1` [PP0820], for which the “NRAS/KRAS (ratio of KD value for NRAS to KD value for KRAS)” value in assay [1] was “A (a compound having 10 or more and less than 20 is denoted as A)”. Further, the “HRAS/KRAS (ratio of KD value for HRAS to KD value for KRAS)” value in assay [2] was “B (a compound having 3 or more and less than 10 is denoted as B)”.

Take `CCC(CC)[C@H]1C(=O)N(C)[C@H](C(=O)N(C)C)CC(=O)N(C)[C@@H](COC)C(=O)N[C@@H]([C@@H](C)CC)C(=O)N(C)CC(=O)N(C)[C@H]2C/C=C\CCN(C2=O)[C@@H](Cc2ccc(C)cc2)C(=O)N(C)CC(=O)N[C@@H](CCc2ccc(C(F)(F)F)c(OC)c2)C(=O)N2CCCC[C@H]2C(=O)NC2(CC(C)(C)C2)C(=O)N1C` [PP2937]: the “NRAS/KRAS (ratio of KD value with respect to GDP-bound NRAS wild-type protein to KD value with respect to KRAS)” value in assay [1] was “A (a compound having 10 or more and less than 20 is denoted as A)”. Also, the “HRAS/KRAS (ratio of KD value with respect to GDP-bound HRAS wild-type protein to KD value with respect to KRAS)” value in assay [2] is “A (a compound having 10 or more and less than 20 is denoted as A)”.

For `CCO[C@@H]1C[C@H]2C(=O)NC3(CCC3)C(=O)N(C)[C@@H](C3CCCC3)C(=O)N(C)[C@H](C(=O)N3CCOCC3)CC(=O)N(C)[C@@H](CC(C)C)C(=O)N[C@@H]([C@@H](C)CC)C(=O)N(C)CC(=O)N(C)[C@H]3CC=C(C)CN(C3=O)[C@@H](Cc3ccc(C(F)(F)F)cc3)C(=O)N(C)CC(=O)N[C@@H](CCc3cc(F)c(C(F)(F)F)c(F)c3)C(=O)N2C1` [PP0826], the “NRAS/KRAS (ratio of KD value for NRAS to KD value for KRAS)” value in assay [1] was “C (A compound having a KD ratio of 0.1 or more and less than 3 is denoted as C)”. The “HRAS/KRAS (ratio of KD value for HRAS to KD value for KRAS)” value in assay [2] is “B (a compound having 3 or more and less than 10 is denoted as B)”.

As to `CCO[C@@H]1C[C@H]2C(=O)NC3(CC(C)(C)C3)C(=O)N(C)[C@@H](C(CC)CC)C(=O)N(C)[C@H](C(=O)N(C)C)CC(=O)N(C)[C@@H](C(C)C)C(=O)N[C@@H]([C@@H](C)CC)C(=O)N(C)CC(=O)N(C)[C@H]3C/C=C\CCN(C3=O)[C@@H](Cc3ccc(C)cc3)C(=O)N(C)CC(=O)N[C@@H](CCc3ccc(C(F)(F)F)c(Cl)c3)C(=O)N2C1` [PP2158], the “NRAS/KRAS (ratio of KD value for NRAS to KD value for KRAS)” value in assay [1] is “AA (a compound having 20 or more is denoted as AA)”. The “HRAS/KRAS (ratio of KD value for HRAS to KD value for KRAS)” value in assay [2] is “A (a compound having 10 or more and less than 20 is denoted as A)”.

Regarding `CCC[C@H]1C(=O)N[C@@H]([C@@H](C)CC)C(=O)N(C)CC(=O)N(C)[C@H]2C/C=C\CCN(C2=O)[C@@H](Cc2ccc(C)cc2)C(=O)N(C)CC(=O)N[C@@H](CCc2cc(F)c(C(F)(F)F)c(F)c2)C(=O)N2C[C@H](OCC)C[C@H]2C(=O)NC2(CC(C)(C)C2)C(=O)N(C)[C@@H](CC(C)C)C(=O)N(C)[C@H](C(=O)N(C)C)CC(=O)N1C` [PP2995], in assay [1], the “NRAS/KRAS (ratio of KD value for NRAS to KD value for KRAS)” value is “A (a compound having 10 or more and less than 20 is denoted as A)”. Moreover, in assay [2], the “HRAS/KRAS (ratio of KD value for HRAS to KD value for KRAS)” value was “A (a compound having 10 or more and less than 20 is denoted as A)”.

As to `CC[C@H](C)[C@@H]1NC(=O)[C@H](CC(C)C)N(C)C(=O)C[C@@H](C(=O)N2CCOCC2)N(C)C(=O)[C@H](C2CCCC2)N(C)C(=O)C2(CCC2)NC(=O)[C@@H]2[C@@H](O)CCN2C(=O)[C@H](CCc2cc(F)c(C(F)(F)F)c(F)c2)NC(=O)CN(C)C(=O)[C@H](Cc2ccc(C(F)(F)F)cc2)N2CCCCC[C@@H](C2=O)N(C)C(=O)CN(C)C1=O` [PP0872], in assay [1], the “NRAS/KRAS (ratio of KD value for NRAS to KD value for KRAS)” value was “A (a compound having 10 or more and less than 20 is denoted as A)”. Moreover, the “HRAS/KRAS (ratio of KD value for HRAS to KD value for KRAS)” value in assay [2] was “A (a compound having 10 or more and less than 20 is denoted as A)”.
